Results from patent US5750522A, “Pyrrolo[1,2-d] [1,2,4]triazine derivatives” (American Home Products Corporation, priority 1996, dated 1998).
Structures can show the parent of a compound that is named as a salt.

How the values were obtained:
[1] = continuous infusion over 2 weeks used because of it; cited from earlier work
[2] = test system: patients with mild to moderate Alzheimer's disease; conditions: cited from earlier work
ml muscarinic receptor = ml muscarinic receptor (Homo sapiens, UniProt P11229); assay: biochemical; type: binding
[3] = target: T1, M1 acetylcholine receptors (ml receptors in CHO cells) (Homo sapiens, UniProt P11229); assay: cell-based; conditions: at 30x Ki (μM), carb = 100%, 1 h, 37° C., read-out: % PI Hydrolysis ml receptors in CHO cells
T1 sequence (P11229 1-460): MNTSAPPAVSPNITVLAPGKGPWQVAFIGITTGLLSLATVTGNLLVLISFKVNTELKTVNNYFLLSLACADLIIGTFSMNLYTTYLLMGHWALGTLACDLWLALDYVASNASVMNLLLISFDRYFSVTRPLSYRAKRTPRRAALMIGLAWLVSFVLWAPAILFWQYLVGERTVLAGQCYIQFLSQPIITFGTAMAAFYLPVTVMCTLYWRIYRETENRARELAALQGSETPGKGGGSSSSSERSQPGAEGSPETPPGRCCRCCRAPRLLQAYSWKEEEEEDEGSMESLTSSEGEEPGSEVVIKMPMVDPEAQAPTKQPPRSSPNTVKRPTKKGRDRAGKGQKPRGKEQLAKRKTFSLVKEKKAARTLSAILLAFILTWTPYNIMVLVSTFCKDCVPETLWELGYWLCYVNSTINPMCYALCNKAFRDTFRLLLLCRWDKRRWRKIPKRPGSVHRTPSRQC

[4] = test system: patients with mild to moderate Alzheimer's disease; conditions: especially at the higher doses where it is most effective; cited from earlier work
ml receptors = conditions: background statement; cited from earlier work
[5] = quaternary ammonium group; background statement; cited from earlier work

COC(=O)C1=CCCN(C)C1 [arecoline]
half-life [1]: short half-life
improvement in memory [2]: memory improvement in patients with mild to moderate Alzheimer's disease

Cc1nnc(NCCN2CC3CCC(CC3)C2)n2cccc12 [Example 3, [4-(3-Azabicyclo[3.2.2]non-3-yl)ethyl]-(1-methylpyrrolo[1,2-d][1,2,4]triazin-4-yl)amine dihydrochloride]
Ki (ml muscarinic receptor): 4.45 µM
Emax [3]: 24%

Nc1c2c(nc3ccccc13)CCCC2 [tacrine]
improvement in memory [2]: improvement in memory can be shown in patients with mild to moderate Alzheimer's disease
adverse side effects [4]: adverse side effects especially at the higher doses where it is most effective

Cc1nnc(NCCCN2CC3CCC(CC3)C2)n2cccc12 [Example 2, [4-(3-Azabicyclo[3.2.2.]-3-propyl]-(1-methylpyrrolo[1,2-d][1,2,4]triazin-4-yl)aminedihydrochloride]
Ki (ml muscarinic receptor): 1.39 µM

Cc1nnc(NCCCCN2CC3CCC(CC3)C2)n2cccc12 [Example 1, [4-(3-Azabicyclo[3.2.2]-3-yl)-butyl]-(1-methylpyrrolo[1,2-d][1,2,4]triazin-4-yl)amine dihydrochloride]
Ki (ml muscarinic receptor): 0.31 µM

C[C@@H]1O[C@H](C[N+](C)(C)C)C[C@H]1O [muscarine]
activation of ml receptors (ml receptors): able to fully activate ml receptors
ability to enter the CNS [5]: not able to enter the CNS

Cc1nnc(NC2CN3CCC2CC3)n2cccc12 (stereo not shown) [Example 4, (1-Azabicyclo[2.2.2]oct-3-yl)-1-methylpyrrolo[1,2-d][1,2,4]triazin-4-ylamine dihydrochloride]
IC50 (ml muscarinic receptor): 20.2 µM

C[N+](C)(C)CCOC(N)=O [carbachol]
activation of ml receptors (ml receptors): able to fully activate ml receptors
ability to enter the CNS [5]: not able to enter the CNS
